Results published in US20120190579A1, “Functionalisation of Solid Substrates” (priority 2009, published 2012).

Legend:
[1] = target: neutravidin-coated agarose beads (Gallus gallus, UniProt P02701); experiment: Pull-down and release of biotinylated protein adduct on neutravidin coated agarose beads; settings: release with β-mercaptoethanol (25 mM) 2 h at 37° C.; densitometry vs protein series dilution
Description: Protein/biotin-PEG-bromomaleimide adduct (200 μL) and unmodified model protein (200 μL) were washed independently with PBS buffer (3×500 μL) in a concentrator (Vivaspin, cut off 10 k) yielding protein solutions (300 μL) (In). For each of the protein solutions obtained, neutravidin-coated agarose beads (750 μL of 50% aqueous slurry) were washed with PBS (2×500 μL). Protein solution (300 μL) was then added to the beads and the mixture incubated at 4° C. for 30 mins. The mixture was centrifuged and the flow through (FT) collected. The beads were washed with PBS (2×500 μL) and both wash fractions collected (W1 and W2). Protein was released from the beads by incubation in PBS (300 μL) containing β-mercaptoethanol (25 mM) for 2 h at 37° C. The sample was centrifuged and the eluant (El) containing cleaved GrB2-SH2 domain L111C collected.
The amount of protein recovered was determined as 44% by comparison with a protein series dilution via densitometry. However, correcting for irreversibly physisorbed protein (determined using the unmodified protein control) the corrected recovery was 71%.

[2] = target: T1, human somatostatin receptor 2 (Homo sapiens, UniProt P30874); experiment: Whole cell patch-clamp current recordings of bridged somatostatin analogues; assay type: cell-based; settings: Pertussis toxin 100 ng/ml overnight; Tertiapin 100 nM
T1 construct: host or cells: HEK293 cells stably expressing Kir3.1 and Kir3.2A
T1 sequence (P30874 whole entry): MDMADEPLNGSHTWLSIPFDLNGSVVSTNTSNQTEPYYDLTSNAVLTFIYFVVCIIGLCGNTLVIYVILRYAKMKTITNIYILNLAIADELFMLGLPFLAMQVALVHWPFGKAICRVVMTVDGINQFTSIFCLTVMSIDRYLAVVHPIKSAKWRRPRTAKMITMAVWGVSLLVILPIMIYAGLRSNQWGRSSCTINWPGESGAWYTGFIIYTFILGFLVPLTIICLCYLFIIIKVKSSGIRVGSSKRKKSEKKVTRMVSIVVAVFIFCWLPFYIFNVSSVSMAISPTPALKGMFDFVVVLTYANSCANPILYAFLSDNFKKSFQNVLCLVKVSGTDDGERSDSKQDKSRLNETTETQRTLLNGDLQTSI
Description: HEK 293 cells expressing HKIR3.1/3.2 channel and human somatostatin receptor 2 were treated with these compounds, and whole cell patch-clamp current recordings taken.
HEK293 cells (human embryonic kidney cell line) stably expressing Kir3.1 and Kir3.2A channels were maintained in minimum essential medium supplemented with 10% foetal calf serum and 727 μg of G418 (Invitrogen), at 37° C. in humidified atmosphere (95% O2, 5% CO2). Cells were transiently transfected with SSTR2DNA (Missouri S&T cDNA Resource Center) along with pEGFP-N1 (Clontech) for visualization of transfected cells using epifluorescence. […]
Somatostatin and its analogues were dialysed for 24 h at 4° C. in buffer (50 mM sodium phosphate, pH 6.2) to remove the organic solvents. After dialysis the concentration was determined and the peptides stored at 4° C. […]
Whole cell patch-clamp current recordings were performed with an Axopatch 200B amplifier (Axon Instruments) using fire-polished pipettes with a resistance of 3-4 MΩ pulled from filamented borosilicated glass capillaries (Harvard Apparatus, 1.5 mm OD×1.17 mm ID). Data was acquired and analysed via a Digidata 1322A interface (Axon Instruments) and pCLAMP software (version 8.1, Axon Instruments). […] For each cell it was assessed if flow artifacts resulting from the pressure of drug application were present. […]

Molecule | melting point [°C] | also measured
CN1C(=O)C=C(Br)C1=O | 77 to 79 | –
O=C1NC(=O)C(SCCO)=C1SCCO | 46 to 50 | –
GrB2-SH2 Domain L111C/Biotin-PEG-bromomaleimide Adduct | – | amount of protein recovered [1]: 44%
O=C1NC(=O)C23NCC[C@H]2C[C@H]13 (some centres unmarked) | 110 to 113 | –
CCCCCCSC1=CC(=O)NC1=O | 99 to 101 | –
O=C(CCCC[C@@H]1SC[C@@H]2NC(=O)N[C@@H]21)NCCOCCOCCN1C(=O)C(Br)=C(Br)C1=O (stereo in doubt) | 100 to 102 | –
O=C1NC(=O)C(I)=C1I | 238 to 241 | –
C=CCCNC1=CC(=O)NC1=O | 68 to 76 | –
O=C1C=C(Br)C(=O)N1 | 148 to 151 | –
COC(=O)[C@H](CSC1=CC(=O)N(C)C1=O)NC(=O)OC(C)(C)C | 101 to 103 | –
O=C(CCCC[C@@H]1SC[C@@H]2NC(=O)N[C@@H]21)NCCOCCOCCN1C(=O)C=C(Br)C1=O (stereo in doubt) | 95 to 98 | –
O=C1NC(=O)C(Sc2ccccn2)=C1Sc1ccccn1 | 70 to 72 | –
Tertiapin Q | – | GIRK currents after treatment of cells with inhibitor (control) [2]: currents were largely inhibited
Pertussis toxin | – | GIRK currents after treatment of cells with inhibitor (control) [2]: currents were largely inhibited
CC(C)(C)OC(=O)NCCOCCOCCNC(=O)CCCC[C@@H]1SC[C@@H]2NC(=O)N[C@@H]21 (stereo in doubt) | 106 to 108 | –
O=C1CC2(SCCS2)C(=O)N1 | 112 to 115 | –
COC(=O)[C@H](CSC1=CC(=O)NC1=O)NC(=O)OC(C)(C)C | 145 to 147 | –
